US20160368879A1, “PHOTOACID GENERATOR, AND RESIN COMPOSITION FOR PHOTOLITHOGRAPHY” (SAN-APRO LTD., priority 2013, published 2016)

Key:
Type in all cases: physicochemical
[1] = Molar extinction coefficient of i-line (365 nm), UV-visible absorbance in acetonitrile; conditions: 0.25 mmol/L in acetonitrile, cell length 1 cm
Protocol: The synthesized photoacid generator was diluted to 0.25 mmol/L with acetonitrile, and using an ultraviolet-visible spectrophotometer (UV-2550 available from SHIMADZU CORPORATION), the absorbance in a range of 200 nm to 500 nm was measured with a cell having an optical path length (a cell length) of 1 cm. The molar extinction coefficient of i-line (365 nm) (ε365) was calculated from the following equation.
[In the equation, […] represents the absorbance at 365 nm.]

[2] = Thermal decomposition temperature (TG/DTA, 2% weight reduction); conditions: point of 2% weight reduction; 10° C./minute from 30° C. to 500° C.; nitrogen atmosphere
Protocol: The synthesized photoacid generator was measured for the change in weight under a temperature increasing condition of 10° C./minute from 30° C. to 500° C. under a nitrogen atmosphere using a thermal gravimetric/differential thermal analyzer (TG/DTA 6200, available from Seiko Instruments Inc.), and a point where the weight was reduced by 2% was defined as the thermal decomposition temperature.

[3] = Solvent solubility (butyl acetate, toluene or PGMEA); conditions: for Solvent solubility PGMEA / Solvent solubility Butyl acetate / Solvent solubility Toluene: 25° C.; for solubility to a solvent (in words): summary of Tables 4 to 6
Protocol: In a test tube, 0.1 g of the synthesized photoacid generator was placed, and an organic solvent (butyl acetate, toluene or PGMEA) was added thereto in 0.2 g portions under a condition where the temperature was adjusted to 25° C. until the photoacid generator was completely dissolved. In this connection, in the case where the photoacid generator was not completely dissolved even when 20 g of the solvent was added, the photoacid generator was evaluated as one that was not dissolved.

Molar extinction coefficient [1] [L/mol/cm] | Thermal decomposition temperature [2] [°C] | Solvent solubility PGMEA [3] [wt %] | Solvent solubility Butyl acetate [3] [wt %] | Solvent solubility Toluene [3] [wt %] | solubility to a solvent (in words) [3] | SMILES
8500 | 240 | 1.5 | 1.1 | 2 |  | CC1(C)C2CCC1(CS(=O)(=O)ON1C(=O)c3cccc4c(Br)ccc(c34)C1=O)C(=O)C2 (stereo not drawn) [Example A-60, 4-bromo-1,8-naphthalimide-(+)-10-camphorsulfonate]
80 | 246 | 9 | 9.5 | 10 |  | CC1(C)C2CCC1(CS(=O)(=O)ON1C(=O)c3cccc4c(C(F)(F)C(F)(F)C(F)(F)C(F)(F)C(F)(F)C(F)(F)C(F)(F)C(F)(F)F)ccc(c34)C1=O)C(=O)C2 (stereo not drawn) [Example A-57, 4-(heptadecafluoro-n-octyl)-1,8-naphthalimide-(+)-10-camphorsulfonate]
6000 | 220 | 6 | 5 | 10 |  | O=C1c2cccc3c(Cl)ccc(c23)C(=O)N1OS(=O)(=O)C(F)(F)F [Example A-19, 4-chloro-1,8-naphthalimide trifluoromethanesulfonate]
16000 | 241 | 9 | 11 | 10 |  | O=C1c2cccc3c(Oc4cccc(C(F)(F)F)c4)ccc(c23)C(=O)N1OS(=O)(=O)c1c(F)c(F)c(F)c(F)c1F [Example A-26, 4-(3-trifluoromethylphenoxy)-1,8-naphthalimide pentafluorobenzenesulfonate]
330 | 225 | 2.4 | 2 | 4 | insufficient | O=C1c2cccc3cccc(c23)C(=O)N1OS(=O)(=O)C(F)(F)F [A′-1, 1,8-naphthalimide trifluoromethanesulfonate, reference compound]
6500 | 247 | 1.7 | 2 | 1.9 |  | CC(C)(C)c1cc2c3c(cc(C(C)(C)C)cc3c1)C(=O)N(OS(=O)(=O)CC13CCC(CC1=O)C3(C)C)C2=O (stereo not drawn) [Example A-53, 3,6-di-tert-butyl-1,8-naphthalimide-(+)-10-camphorsulfonate]
1600 | 235 | 14 | 18 | 20 |  | CCCC(=O)Oc1cc2c3c(cccc3c1)C(=O)N(OS(=O)(=O)c1c(F)c(F)c(F)c(F)c1F)C2=O [Example A-30, 3-butyroyloxy-1,8-naphthalimide pentafluorobenzenesulfonate]
40 | 239 | 22 | 25 | 28 |  | O=C1c2cccc3c(C(F)(F)C(F)(F)C(F)(F)C(F)(F)F)ccc(c23)C(=O)N1OS(=O)(=O)C(F)(F)F [Example A-16, 4-(nonafluorobutyl)-1,8-naphthalimide trifluoromethanesulfonate]
5500 | 243 | 2.5 | 2.5 | 3 |  | CC1(C)[C@@H]2CC[C@@]1(CS(=O)(=O)ON1C(=O)c3cccc4c([Si](C)(C)C)ccc(c34)C1=O)C(=O)C2 [Example A-58, 4-trimethylsilyl-1,8-naphthalimide-(+)-10-camphorsulfonate]
40 | 239 | 13 | 14 | 11 |  | O=C1c2cccc3c(C(F)(F)C(F)(F)C(F)(F)C(F)(F)F)ccc(c23)C(=O)N1OS(=O)(=O)c1c(F)c(F)c(F)c(F)c1F [Example A-36, 4-(nonafluorobutyl)-1,8-naphthalimide pentafluorobenzenesulfonate]
12000 | 230 | 7.5 | 6 | 12 |  | O=C1c2cccc3c(OCC(F)(F)C(F)F)ccc(c23)C(=O)N1OS(=O)(=O)C(F)(F)F [Example A-3, 4-(2,2,3,3-tetrafluoro-1-propoxy)-1,8-naphthalimide trifluoromethanesulfonate]
14000 | 245 | 1.2 | 1.5 | 2 |  | CCCOc1ccc2c3c(cccc13)C(=O)N(OS(=O)(=O)CC13CCC(CC1=O)C3(C)C)C2=O (stereo not drawn) [Example A-42, 4-n-propoxy-1,8-naphthalimide-(+)-10-camphorsulfonate]
1400 | 245 | 5 | 6 | 6 |  | CC1(C)C2CC[C@@]1(CS(=O)(=O)ON1C(=O)c3cccc4cc(OC(=O)c5ccccc5)cc(c34)C1=O)C(=O)C2 [Example A-51, 3-benzoyloxy-1,8-naphthalimide-(+)-10-camphorsulfonate]
6000 | 253 | 1.7 | 2 | 2.1 |  | CC1(C)C2CC[C@@]1(CS(=O)(=O)ON1C(=O)c3cc(C45CC6CC(CC(C6)C4)C5)cc4cc(C56CC7CC(CC(C7)C5)C6)cc(c34)C1=O)C(=O)C2 [Example A-55, 3,6-diadamantyl-1,8-naphthalimide-(+)-10-camphorsulfonate]
5500 | 241 | 5.5 | 5.5 | 6 |  | C[Si](C)(C)c1ccc2c3c(cccc13)C(=O)N(OS(=O)(=O)c1c(F)c(F)c(F)c(F)c1F)C2=O [Example A-38, 4-trimethylsilyl-1,8-naphthalimide pentafluorobenzenesulfonate]
3000 | 233 | 1.8 | 1.4 | 1.8 |  | CC1(C)C2CCC1(CS(=O)(=O)ON1C(=O)c3cccc4c(C(=O)Cc5ccccc5)ccc(c34)C1=O)C(=O)C2 (stereo not drawn) [Example A-44, 4-phenylacetyl-1,8-naphthalimide-(+)-10-camphorsulfonate]
330 | 228 | 1.9 | 1.6 | 3.2 | insufficient | O=C1c2cccc3cccc(c23)C(=O)N1OS(=O)(=O)c1c(F)c(F)c(F)c(F)c1F [A′-3, 1,8-naphthalimide pentafluorobenzenesulfonate, reference compound]
1300 | 242 | >30 | >30 | >30 |  | O=C(Oc1cc2c3c(cccc3c1)C(=O)N(OS(=O)(=O)C(F)(F)F)C2=O)c1c(F)c(F)c(F)c(F)c1F [Example A-12, 3-pentafluorobenzoyloxy-1,8-naphthalimide trifluoromethanesulfonate]
16000 | 243 | 2.8 | 3.5 | 3.3 |  | CC1(C)C2CCC1(CS(=O)(=O)ON1C(=O)c3cccc4c(Oc5cccc(C(F)(F)F)c5)ccc(c34)C1=O)C(=O)C2 (stereo not drawn) [Example A-46, 4-(3-trifluoromethylphenoxy)-1,8-naphthalimide-(+)-10-camphorsulfonate]
16300 | 236 | 4.5 | 4 | 3.5 |  | CC(C)Oc1ccc2c3c(cccc13)C(=O)N(OS(=O)(=O)c1c(F)c(F)c(F)c(F)c1F)C2=O [Example A-21, 4-isopropoxy-1,8-naphthalimide pentafluorobenzenesulfonate]
